# From US11377442B2, “Small molecule agonists and antagonists of NR2F6 activity” (ZANDER THERAPEUTICS, INC., priority 2016, dated 2022)
# Read-outs that look alike come from different tables or passages of the source.
# Assays:
# Assay type in all cases: cell-based
# Renilla = Renilla signal in NR2F6 agonist screening, cmpd/DMSO; settings: Renilla, F4
# NR2F6 = target: T1, NR2F6 (Homo sapiens, UniProt P10588); experiment: NR2F6 agonist screening, Firefly signal cmpd/DMSO
# T1 construct: expressed in transfected cells; also transient transfection
# T1 sequence (P10588 1-404): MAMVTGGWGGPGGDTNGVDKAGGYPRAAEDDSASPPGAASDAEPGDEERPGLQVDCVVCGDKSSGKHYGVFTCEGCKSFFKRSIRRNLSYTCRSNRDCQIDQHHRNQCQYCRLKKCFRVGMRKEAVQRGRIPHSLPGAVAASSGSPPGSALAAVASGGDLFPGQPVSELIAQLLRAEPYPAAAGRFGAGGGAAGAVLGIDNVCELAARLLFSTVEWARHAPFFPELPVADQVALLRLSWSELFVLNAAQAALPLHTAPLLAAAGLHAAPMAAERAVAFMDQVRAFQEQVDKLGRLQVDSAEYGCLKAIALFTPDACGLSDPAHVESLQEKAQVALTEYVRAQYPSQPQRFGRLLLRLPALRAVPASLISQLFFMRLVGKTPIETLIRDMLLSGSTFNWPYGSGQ
# HEK293 pGL4 = experiment: Firefly_pGL signal, cmpd/DMSO (pGL4 control cells); settings: Homo sapiens
# NR2F6 LBD = target: T2, NR2F6 LBD (Homo sapiens, UniProt P10588); experiment: NR2F6 LBD transient transfection; settings: LBD
# T2 construct: expressed in transfected cells
# T2 sequence (P10588 165-393 limits assumed): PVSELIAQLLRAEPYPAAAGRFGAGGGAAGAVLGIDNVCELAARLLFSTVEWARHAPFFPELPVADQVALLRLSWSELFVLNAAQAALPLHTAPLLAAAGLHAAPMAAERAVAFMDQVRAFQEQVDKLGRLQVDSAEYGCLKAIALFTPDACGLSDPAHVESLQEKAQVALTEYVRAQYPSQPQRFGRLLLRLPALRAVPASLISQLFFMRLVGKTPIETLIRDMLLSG
# Procedure, shortened: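 LBD-transfected cells treated at 40, 10, 2 and 0.5 μM (4 replicates); cytotoxicity measured in parallel, normalized to DMSO (0%) and zero signal (100%). Higher concentrations excluded where signal loss reflected toxicity.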
# [1] = read-out: Renilla, F4, cmpd/DMSO (mean)
# [2] = 1% FBS, read-out: Renilla, F4, 1% FBS, cmpd/DMSO (mean)
# [3] = 10% FBS, read-out: Renilla, F4, 10% FBS, cmpd/DMSO (mean)
# [4] = HEK293, 0.5 uM, pGL4, read-out: Firefly pGL4, cmpd/DMSO (mean)
# [5] = HEK293, 2 uM, pGL4, read-out: Firefly pGL4, cmpd/DMSO (mean)
# [6] = HEK293, 10 uM, pGL4, read-out: Firefly pGL4, cmpd/DMSO (mean)
# [7] = HEK293, 40 uM, pGL4, read-out: Firefly pGL4, cmpd/DMSO (mean)
# [8] = HEK293, pGL4, 1% FBS, 0.5 uM, read-out: Firefly, pGL4, 1% FBS, cmpd/DMSO (mean)
# [9] = HEK293, pGL4, 1% FBS, 2 uM, read-out: Firefly, pGL4, 1% FBS, cmpd/DMSO (mean)
# [10] = HEK293, pGL4, 1% FBS, 10 uM, read-out: Firefly, pGL4, 1% FBS, cmpd/DMSO (mean)
# [11] = HEK293, pGL4, 1% FBS, 40 uM, read-out: Firefly, pGL4, 1% FBS, cmpd/DMSO (mean)
# [12] = HEK293, pGL4, 10% FBS, 0.5 uM, read-out: Firefly, pGL4, 10% FBS, cmpd/DMSO (mean)
# [13] = HEK293, pGL4, 10% FBS, 2 uM, read-out: Firefly, pGL4, 10% FBS, cmpd/DMSO (mean)
# [14] = HEK293, pGL4, 10% FBS, 10 uM, read-out: Firefly, pGL4, 10% FBS, cmpd/DMSO (mean)
# [15] = HEK293, pGL4, 10% FBS, 40 uM, read-out: Firefly, pGL4, 10% FBS, cmpd/DMSO (mean)
structure (smiles),measurement,setting,value
O=S1(=O)C[C@H](NC2CCCCC2)[C@@H](S(=O)(=O)c2ccc(Cl)cc2)C1 [Compound D124],fold induction at 0.5 µM,Renilla; [1],1.1
same,fold induction at 2 µM,Renilla; [1],1.2
same,fold induction at 10 µM,Renilla; [1],1.5
same,fold induction at 40 µM,Renilla; [1],1.8
same,fold induction at 0.5 µM,Renilla; [2],1.1
same,fold induction at 2 µM,Renilla; [2],1.2
same,fold induction at 10 µM,Renilla; [2],1.5
same,fold induction at 40 µM,Renilla; [2],1.6
same,fold induction at 0.5 µM,Renilla; [3],1
same,fold induction at 2 µM,Renilla; [3],1
same,fold induction at 10 µM,Renilla; [3],1.3
same,fold induction at 40 µM,Renilla; [3],2.6
same,"Firefly F4, cmpd/DMSO (mean)",NR2F6; 0.5 uM,1.6
same,"Firefly F4, cmpd/DMSO (mean)",NR2F6; 2 uM,1.3
same,"Firefly F4, cmpd/DMSO (mean)",NR2F6; 10 uM,4.6
same,"Firefly F4, cmpd/DMSO (mean)",NR2F6; 40 uM,2.1
same,"F4, Firefly/Renilla for S/B(F4) > 3","NR2F6; 1% FBS, 10 uM",2.0
same,"Firefly, F4/pGL4 for S/B(F4) > 3","NR2F6; 1% FBS, 10 uM",1.3
same,"F4, Firefly/Renilla for S/B(F4) > 3","NR2F6; 10% FBS, 40 uM",1.7
same,"Firefly, F4/pGL4 for S/B(F4) > 3","NR2F6; 10% FBS, 40 uM",1.4
same,"Firefly, F4, 1% FBS, cmpd/DMSO (mean)","NR2F6; 1% FBS, 0.5 uM",0.9
same,"Firefly, F4, 1% FBS, cmpd/DMSO (mean)","NR2F6; 1% FBS, 2 uM",1.9
same,"Firefly, F4, 1% FBS, cmpd/DMSO (mean)","NR2F6; 1% FBS, 10 uM",3.1
same,"Firefly, F4, 1% FBS, cmpd/DMSO (mean)","NR2F6; 1% FBS, 40 uM",0.4
same,"Firefly, F4, 10% FBS, cmpd/DMSO (mean)","NR2F6; 10% FBS, 0.5 uM",1.2
same,"Firefly, F4, 10% FBS, cmpd/DMSO (mean)","NR2F6; 10% FBS, 2 uM",1.0
same,"Firefly, F4, 10% FBS, cmpd/DMSO (mean)","NR2F6; 10% FBS, 10 uM",2.3
same,"Firefly, F4, 10% FBS, cmpd/DMSO (mean)","NR2F6; 10% FBS, 40 uM",4.5
same,fold induction at 0.5 µM,HEK293 pGL4; [4],1.4
same,fold induction at 2 µM,HEK293 pGL4; [5],1.5
same,fold induction at 10 µM,HEK293 pGL4; [6],3.1
same,fold induction at 40 µM,HEK293 pGL4; [7],0.7
same,fold induction at 0.5 µM,HEK293 pGL4; [8],1.1
same,fold induction at 2 µM,HEK293 pGL4; [9],1.6
same,fold induction at 10 µM,HEK293 pGL4; [10],2.4
same,fold induction at 40 µM,HEK293 pGL4; [11],0.8
same,fold induction at 0.5 µM,HEK293 pGL4; [12],1.2
same,fold induction at 2 µM,HEK293 pGL4; [13],1.4
same,fold induction at 10 µM,HEK293 pGL4; [14],2.2
same,fold induction at 40 µM,HEK293 pGL4; [15],3.2
same,"Firefly LBD, cmpd/DMSO (mean)",NR2F6 LBD; 0.5 uM,1.4
same,"Firefly LBD, cmpd/DMSO (mean)",NR2F6 LBD; 2 uM,1.6
same,"Firefly LBD, cmpd/DMSO (mean)",NR2F6 LBD; 10 uM,3.6
same,"Firefly LBD, cmpd/DMSO (mean)",NR2F6 LBD; 40 uM,0.5
CC1CCN([C@H]2CS(=O)(=O)C[C@@H]2S(=O)(=O)c2ccc(Cl)cc2)CC1 [Compound D125],fold induction at 0.5 µM,Renilla; [1],1
same,fold induction at 2 µM,Renilla; [1],1.3
same,fold induction at 10 µM,Renilla; [1],1.8
same,fold induction at 40 µM,Renilla; [1],1.3
same,"Firefly F4, cmpd/DMSO (mean)",NR2F6; 0.5 uM,1.3
same,"Firefly F4, cmpd/DMSO (mean)",NR2F6; 2 uM,2.3
same,"Firefly F4, cmpd/DMSO (mean)",NR2F6; 10 uM,5.6
same,"Firefly F4, cmpd/DMSO (mean)",NR2F6; 40 uM,0.9
same,"Activity, cmpd/DMSO",NR2F6; Table 31,7.3
same,fold induction at 0.5 µM,HEK293 pGL4; [4],1.4
same,fold induction at 2 µM,HEK293 pGL4; [5],1.9
same,fold induction at 10 µM,HEK293 pGL4; [6],4.2
same,fold induction at 40 µM,HEK293 pGL4; [7],0.6
same,"Firefly LBD, cmpd/DMSO (mean)",NR2F6 LBD; 0.5 uM,1.0
same,"Firefly LBD, cmpd/DMSO (mean)",NR2F6 LBD; 2 uM,1.6
same,"Firefly LBD, cmpd/DMSO (mean)",NR2F6 LBD; 10 uM,4.6
same,"Firefly LBD, cmpd/DMSO (mean)",NR2F6 LBD; 40 uM,0.4
COCCCN[C@H]1CS(=O)(=O)C[C@@H]1S(=O)(=O)c1ccc(Cl)cc1 [Compound D126],fold induction at 0.5 µM,Renilla; [1],1.1
same,fold induction at 2 µM,Renilla; [1],1.2
same,fold induction at 10 µM,Renilla; [1],1.6
same,fold induction at 40 µM,Renilla; [1],1.6
same,fold induction at 0.5 µM,Renilla; [2],1.2
same,fold induction at 2 µM,Renilla; [2],1.2
same,fold induction at 10 µM,Renilla; [2],1.5
same,fold induction at 40 µM,Renilla; [2],1.8
same,fold induction at 0.5 µM,Renilla; [3],1
same,fold induction at 2 µM,Renilla; [3],1.1
same,fold induction at 10 µM,Renilla; [3],1.7
same,fold induction at 40 µM,Renilla; [3],2.8
same,"Firefly F4, cmpd/DMSO (mean)",NR2F6; 0.5 uM,1.0
same,"Firefly F4, cmpd/DMSO (mean)",NR2F6; 2 uM,1.8
same,"Firefly F4, cmpd/DMSO (mean)",NR2F6; 10 uM,4.5
same,"Firefly F4, cmpd/DMSO (mean)",NR2F6; 40 uM,2.3
same,"F4, Firefly/Renilla for S/B(F4) > 3","NR2F6; 1% FBS, 10 uM",2.0
same,"Firefly, F4/pGL4 for S/B(F4) > 3","NR2F6; 1% FBS, 10 uM",1.6
same,"F4, Firefly/Renilla for S/B(F4) > 3","NR2F6; 10% FBS, 40 uM",3.0
same,"Firefly, F4/pGL4 for S/B(F4) > 3","NR2F6; 10% FBS, 40 uM",2.1
same,"Firefly, F4, 1% FBS, cmpd/DMSO (mean)","NR2F6; 1% FBS, 0.5 uM",0.7
same,"Firefly, F4, 1% FBS, cmpd/DMSO (mean)","NR2F6; 1% FBS, 2 uM",1.5
same,"Firefly, F4, 1% FBS, cmpd/DMSO (mean)","NR2F6; 1% FBS, 10 uM",3.1
same,"Firefly, F4, 1% FBS, cmpd/DMSO (mean)","NR2F6; 1% FBS, 40 uM",0.6
same,"Firefly, F4, 10% FBS, cmpd/DMSO (mean)","NR2F6; 10% FBS, 0.5 uM",1.4
same,"Firefly, F4, 10% FBS, cmpd/DMSO (mean)","NR2F6; 10% FBS, 2 uM",1.0
same,"Firefly, F4, 10% FBS, cmpd/DMSO (mean)","NR2F6; 10% FBS, 10 uM",2.9
same,"Firefly, F4, 10% FBS, cmpd/DMSO (mean)","NR2F6; 10% FBS, 40 uM",8.3
same,fold induction at 0.5 µM,HEK293 pGL4; [4],1.2
same,fold induction at 2 µM,HEK293 pGL4; [5],1.2
same,fold induction at 10 µM,HEK293 pGL4; [6],3
same,fold induction at 40 µM,HEK293 pGL4; [7],0.8
same,fold induction at 0.5 µM,HEK293 pGL4; [8],1.4
same,fold induction at 2 µM,HEK293 pGL4; [9],1.8
same,fold induction at 10 µM,HEK293 pGL4; [10],2
same,fold induction at 40 µM,HEK293 pGL4; [11],1.6
same,fold induction at 0.5 µM,HEK293 pGL4; [12],1.1
same,fold induction at 2 µM,HEK293 pGL4; [13],1.1
same,fold induction at 10 µM,HEK293 pGL4; [14],1.8
same,fold induction at 40 µM,HEK293 pGL4; [15],3.9
same,"Firefly LBD, cmpd/DMSO (mean)",NR2F6 LBD; 0.5 uM,1.6
same,"Firefly LBD, cmpd/DMSO (mean)",NR2F6 LBD; 2 uM,1.5
same,"Firefly LBD, cmpd/DMSO (mean)",NR2F6 LBD; 10 uM,2.9
same,"Firefly LBD, cmpd/DMSO (mean)",NR2F6 LBD; 40 uM,2.1
